Where no end group is shown, it is not given here.
Target: DR4 (DRB1*0401) (Homo sapiens, UniProt P01903+P01911, A100K/A169T/F76Y/I96L/K127E/L162R/M171V/N62H/P40V/Q125Y/R42H/S133A/S149N/S66Y/V115G/V209L/W38E)
Assay: Peptide HLA-DR binding assay (semi-quantitative competition with biotinylated marker peptide)
Conditions: read-out: DRB1*0401 ^eIC50
Protocol: Two EBV-transformed B-cell lines, BSM (typed as DR4 [DRB1*0401] and BM92 (typed as DR4 [DRB1*0404) were provided by Dr. M. Oudshoom from the Academic Hospital Leiden, the Netherlands. The cells were cultured in Dulbecco's modified eagles minimal essential medium DMEM/HAM's F12 (Gibco Laboratories, Grand Island, NY) supplemented with 10% FCS (Hyclone Laboratories), 1% non-essential amino acids (ICI), L-glutamine, 2-ME and antibiotics. Cells were routinely passaged every 2-3 days in a 1:2 ratio. Cells were harvested and thereafter washed three times in phosphate buffer saline (PBS) (4°C) containing 1 mM PMSF. Cell pellets were stored at -70°C until use. HLA-DR expressing cells were thawed and lysed on ice for 30 minutes in PBS, 1% NP-40, 1 mM AEBSF (Calbiochem). The lysate was cleared of nuclei and debris by centrifugation at 15.000 rpm (Sorvall, SS34 rotor) for 30 minutes.
HLA-DR molecules were affinity purified from cell lysates using monoclonal antibody L243 (ATCC), directed against a nonpolymorphic determinant on the DR-complex (Lampson et al., J. Immunol. 125:293, 1980). Protein G sepharose purified L243 was coupled to NHS-Sepharose 4 FF (Pharmacia) according to the manufactures instructions. The cleared cell-lysate was passed through a 0.45 µm filter and added to L243-NHS-sepharose beads. […] Collected fractions were analysed on SDS-PAGE under non-reducing conditions followed by silver staining. […]
The peptide binding studies were performed using a semi-quantitative binding assay as described previously (Joosten et al., Int. Immunol. 6:751, 1994).
After approximately 48 hours incubation at room temperature, bound and unbound marker peptides were separated by SDS-PAGE under non-reducing conditions. […] Biotinylated peptides were detected by enhanced chemoluminescence using a Westem Blot ECL kit (Amersham, U.K.) according to the manufactures instructions. […]

IC50 [µM] | Sequence
1 to 10 | AGWLADGSLRYPI [HAG3]
1 to 10 | AGWLADRSVRYPI [HAG2]
10 to 100 | AGWLSDGSVQYPI [HCLP1]
